Assays:
[1] = tested on: SW620 cells; assay: Ras cellular assay, cell proliferation SW620; assay type: cell-based; settings: Homo sapiens, SW-620
Excerpt: For example, this assay can be also used to assess selective growth inhibition of a mutant Ras protein relative to a wildtype, or relative to a different mutant Ras protein.

[2] = target: T1, wildtype K-Ras (Homo sapiens, UniProt P01116); assay: PPI-HTRF assay, wildtype K-Ras / SOS1 interaction; assay type: biochemical; settings: HTRF, K-Ras wt; read-out: PPI-HTRF-5 nM (K-Ras wt IC50)
T1 construct: made in house; host or cells: E. coli, e.g. BL21 (DE3)
T1 sequence (P01116 1-188 isoform P01116-2): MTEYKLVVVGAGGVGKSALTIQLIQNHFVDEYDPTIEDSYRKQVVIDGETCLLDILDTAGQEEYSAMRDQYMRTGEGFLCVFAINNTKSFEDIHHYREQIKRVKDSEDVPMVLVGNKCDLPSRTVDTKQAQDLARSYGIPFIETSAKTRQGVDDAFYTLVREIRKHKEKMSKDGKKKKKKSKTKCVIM
Summary of the method: (§1)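 HTRF readout: 665/620 nm ratio (ex 337 nm) after ≥10 min incubation. Donor anti-GST-Eu(K) sits on GST-K-Ras (WT, G12D, G12V or G12S) and acceptor anti-6His-XL665 on His-hSOS1. Buffer ~5 mM HEPES pH 7.4, ~150 mM NaCl, ~1 mM DTT, 0.05% BSA, 0.0025% Igepal. Duplicate 6-point dilution, 10–0.01 μM, fitted to IC50.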

[3] = tested on: GP2D cells; assay: Ras cellular assay, cell proliferation GP2D; assay type: cell-based
Summary of the method: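 Growth inhibition read by CellTiter-Glo luminescence roughly 5 days after compound addition, which followed overnight plating of G12D-mutant GP2D cells (e.g., 800 per well). Compounds were tested as a serial dilution (e.g., 9 points, 3-fold), with IC50 fitted by four-parameter model.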

[4] = target: T2, K-Ras G12D (Homo sapiens, UniProt P01116, G12D); assay: PPI-HTRF assay, K-Ras G12D / SOS1 interaction; assay type: biochemical; settings: HTRF, K-Ras G12D; read-out: PPI-HTRF-5 nM (K-Ras G12D IC50)
T2 construct: made in house; host or cells: E. coli, e.g. BL21 (DE3)
T2 sequence (P01116 1-188 isoform P01116-2 G12D): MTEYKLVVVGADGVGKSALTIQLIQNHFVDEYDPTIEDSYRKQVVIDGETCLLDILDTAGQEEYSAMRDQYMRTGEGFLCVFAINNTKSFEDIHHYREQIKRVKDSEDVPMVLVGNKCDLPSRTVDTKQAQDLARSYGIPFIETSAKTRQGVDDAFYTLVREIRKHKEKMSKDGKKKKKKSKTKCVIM
Summary of the method: as §1

[5] = target: T3, K-Ras G12V (Homo sapiens, UniProt P01116, G12V); assay: PPI-HTRF assay, K-Ras G12V / SOS1 interaction; assay type: biochemical; settings: HTRF, K-Ras G12V; read-out: PPI-HTRF-5 nM (K-Ras G12V IC50)
T3 construct: made in house; host or cells: E. coli, e.g. BL21 (DE3)
T3 sequence (P01116 1-188 isoform P01116-2 G12V): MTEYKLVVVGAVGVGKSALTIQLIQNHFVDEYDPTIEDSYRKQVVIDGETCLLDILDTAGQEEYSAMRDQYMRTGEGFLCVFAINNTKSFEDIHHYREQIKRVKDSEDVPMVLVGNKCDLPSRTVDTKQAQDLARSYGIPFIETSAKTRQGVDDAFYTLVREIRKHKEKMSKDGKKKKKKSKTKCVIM
Summary of the method: as §1

[6] = tested on: A549 cells; assay: Ras cellular assay, cell proliferation A549; assay type: cell-based; settings: Homo sapiens
Summary of the method: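 G12S-mutant A549 cells (800/well) in RPMI-1640 plus 10% heat-inactivated FBS, standard or ultra-low attachment 384-well plates, dosed the day after plating with a 10-point 3-fold series. Viability by CellTiter-Glo luminescence about 6 days later; IC50 from four-parameter fit.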

[7] = target: T4, K-Ras G12S (Homo sapiens, UniProt P01116, G12S); assay: PPI-HTRF assay, K-Ras G12S / SOS1 interaction; assay type: biochemical; settings: read-out: PPI-HTRF-5 nM (K-Ras G12S IC50)
T4 construct: made in house; host or cells: E. coli, e.g. BL21 (DE3)
T4 sequence (P01116 1-188 isoform P01116-2 G12S): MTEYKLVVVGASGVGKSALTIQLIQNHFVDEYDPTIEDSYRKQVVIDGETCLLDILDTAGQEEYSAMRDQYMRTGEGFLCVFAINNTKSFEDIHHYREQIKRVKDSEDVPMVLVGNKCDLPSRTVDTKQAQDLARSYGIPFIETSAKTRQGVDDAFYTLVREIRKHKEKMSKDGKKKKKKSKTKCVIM
Summary of the method: as §1

With `N#Cc1c(N)sc2c(F)ccc(-c3c(Cl)c4c5c(nc(OC[C@@]67CCCN6C[C@H](F)C7)nc5c3F)N3CC[C@@H]3CO4)c12` [compound 139, 2-amino-4-((11aR)-9-chloro-7-fluoro-5-(((2R,7aS)-2-fluorotetrahydro-1H-pyrrolizin-7a(5H)-yl)methoxy)-1,2,11,11a-tetrahydroazeto[2′,1′:3,4][1,4]oxazepino [5,6,7-de]quinazolin-8-yl)-7-fluorobenzo[b]thiophene-3-carbonitrile] the IC50 [1] was < 5 µM, the IC50 [2] was < 5 µM and the IC50 [3] was < 5 µM. For the same compound, the IC50 [4] was < 5 µM, the IC50 [5] was < 5 µM and the IC50 [6] was > 5 µM. For the same compound, the IC50 [7] was < 5 µM.

`CCN1c2nc(OC[C@@]34CCCN3C[C@H](F)C4)nc3c(F)c(-c4ccc(F)c5sc(N)c(C#N)c45)c(Cl)c(c23)OCC2COCC21` (stereo partly drawn) [compound 186, 2-amino-4-(6-chloro-12-ethyl-4-fluoro-2-(((2R,7aS)-2-fluorotetrahydro-1H-pyrrolizin-7a(5H)-yl)methoxy)-8a,9,11a,12-tetrahydro-8H,11H-furo[3′,4′:6,7][1,5]oxazocino[4,3,2-de]quinazolin-5-yl)-7-fluorobenzo[b]thiophene-3-carbonitrile] was tested, and the IC50 [1] was < 5 µM, the IC50 [2] was < 5 µM and the IC50 [3] was < 5 µM. The IC50 [4] was < 5 µM, the IC50 [5] was < 5 µM and the IC50 [6] was < 5 µM. For the same compound, the IC50 [7] was < 5 µM.

For `N#Cc1c(N)sc2c(F)ccc(-c3c(Cl)c4c5c(nc(OC[C@@]67CCCN6C[C@H](F)C7)nc5c3F)N3[C@H](CCO4)C[C@@H]4OCC[C@@H]43)c12` [compound 200, 2-amino-4-((6aR,7aS,10aS)-3-chloro-1-fluoro-13-(((2R,7aS)-2-fluorotetrahydro-1H-pyrrolizin-7a(5H)-yl)methoxy)-5,6,6a,7,7a,9,10,10a-octahydrofuro[2″,3″:4′,5′]pyrrolo[1′,2′:5,6][1,5]oxazocino[4,3,2-de]quinazolin-2-yl)-7-fluorobenzo[b]thiophene-3-carbonitrile], the IC50 [1] was < 5 µM, the IC50 [2] was < 5 µM and the IC50 [3] was < 5 µM. The IC50 [4] was < 5 µM, the IC50 [5] was < 5 µM and the IC50 [6] was < 5 µM. For the same compound, the IC50 [7] was < 5 µM.

`N#Cc1c(N)sc2c(F)ccc(-c3c(Cl)c4c5c(nc(OCC67CCCN6C[C@H](F)C7)nc5c3F)N3CCCCCC3CO4)c12` (stereo partly drawn) [compound 193, 2-amino-4-(3-chloro-1-fluoro-13-(((2R,7aS)-2-fluorotetrahydro-1H-pyrrolizin-7a(5H)-yl)methoxy)-5a,6,7,8,9,10-hexahydro-5H-azepino[2′,1′:3,4][1,4]oxazepino[5,6,7-de]quinazolin-2-yl)-7-fluorobenzo[b]thiophene-3-carbonitrile] was tested, and the IC50 [1] was < 5 µM, the IC50 [2] was < 5 µM and the IC50 [3] was < 5 µM. For the same compound, the IC50 [4] was < 5 µM, the IC50 [5] was < 5 µM and the IC50 [6] was < 5 µM. For the same compound, the IC50 [7] was < 5 µM.

With `N#Cc1c(N)sc2c(F)ccc(-c3c(Cl)c4c5c(nc(OC[C@@]67CCCN6C[C@H](F)C7)nc5c3F)N3CCOCC3CO4)c12` (stereo partly drawn) [compound 116, 2-amino-4-(6-chloro-4-fluoro-2-(((2R,7aS)-2-fluorotetrahydro-1H-pyrrolizin-7a(5H)-yl)methoxy)-8a,9,11,12-tetrahydro-8H-[1,4]oxazino[3′,4′:3,4][1,4]oxazepino[5,6,7-de]quinazolin-5-yl)-7-fluorobenzo[b]thiophene-3-carbonitrile] the IC50 [1] was < 5 µM, the IC50 [2] was < 5 µM and the IC50 [3] was < 5 µM. For the same compound, the IC50 [4] was < 5 µM, the IC50 [5] was < 5 µM and the IC50 [6] was < 5 µM. The IC50 [7] was < 5 µM.

For `N#Cc1c(N)sc2c(F)ccc(-c3c(Cl)c4c5c(nc(OC[C@@]67CCCN6C[C@H](F)C7)nc5c3F)N3CC(OC(F)F)CCC3CO4)c12` (single isomer, unassigned) [compound 148], the IC50 [1] was < 5 µM, the IC50 [2] was < 5 µM and the IC50 [3] was < 5 µM. The IC50 [4] was < 5 µM, the IC50 [5] was < 5 µM and the IC50 [6] was > 5 µM. For the same compound, the IC50 [7] was < 5 µM.

With `N#Cc1c(N)sc2c(F)ccc(-c3c(Cl)c4c5c(nc(OC[C@@]67CCCN6C[C@H](F)C7)nc5c3F)N3CC(F)(F)C[C@H]3CO4)c12` [compound 181] the IC50 [1] was < 5 µM, the IC50 [2] was < 5 µM and the IC50 [3] was < 5 µM. The IC50 [4] was < 5 µM, the IC50 [5] was < 5 µM and the IC50 [6] was < 5 µM. The IC50 [7] was < 5 µM.

For `N#Cc1c(N)sc2c(F)ccc(-c3c(Cl)c4c5c(nc(OC[C@@]67CCCN6C[C@H](F)C7)nc5c3F)N3CC(COC(F)F)CCC3CO4)c12` (stereo partly drawn) [compound 154, 2-amino-4-(6-chloro-11-((difluoromethoxy)methyl)-4-fluoro-2-(((2R,7aS)-2-fluorotetrahydro-1H-pyrrolizin-7a(5H)-yl)methoxy)-8,8a,9,10,11,12-hexahydropyrido[2′,1′:3,4][1,4]oxazepino [5,6,7-de]quinazolin-5-yl)-7-fluorobenzo[b]thiophene-3-carbonitrile], the IC50 [1] was < 5 µM, the IC50 [2] was < 5 µM and the IC50 [3] was < 5 µM. The IC50 [4] was < 5 µM, the IC50 [5] was < 5 µM and the IC50 [6] was < 5 µM. The IC50 [7] was < 5 µM.

In the case of `CN1c2nc(OC[C@@]34CCCN3C[C@H](F)C4)nc3c(F)c(-c4ccc(F)c5sc(N)c(C#N)c45)c(Cl)c(c23)OCC2CN(C(=O)C(F)F)CC21` (stereo partly drawn) [compound 120, 2-amino-4-(6-chloro-10-(2,2-difluoroacetyl)-4-fluoro-2-(((2R,7aS)-2-fluorotetrahydro-1H-pyrrolizin-7a(5H)-yl)methoxy)-12-methyl-8a,9,10,11,11a,12-hexahydro-8H-pyrrolo[3′,4′:6,7][1,5]oxazocino[4,3,2-de]quinazolin-5-yl)-7-fluorobenzo[b]thiophene-3-carbonitrile], the IC50 [1] is reported as < 5 µM, the IC50 [2] is reported as < 5 µM and the IC50 [3] is reported as < 5 µM. For the same compound, the IC50 [4] was < 5 µM, the IC50 [5] was < 5 µM and the IC50 [6] was > 5 µM. The IC50 [7] was < 5 µM.

In the case of `N#Cc1c(N)sc2c(F)ccc(-c3c(Cl)c4c5c(nc(OC[C@@]67CCCN6C[C@H](F)C7)nc5c3F)N3CCN(C(=O)C(F)F)CCC3CO4)c12` (stereo partly drawn) [compound 149, 2-amino-4-(6-chloro-11-(2,2-difluoroacetyl)-4-fluoro-2-(((2R,7aS)-2-fluorotetrahydro-1H-pyrrolizin-7a(5H)-yl)methoxy)-8a,9,10,11,12,13-hexahydro-8H-[1,4]diazepino[7′,1′:3,4][1,4]oxazepino [5,6,7-de]quinazolin-5-yl)-7-fluorobenzo[b]thiophene-3-carbonitrile], the IC50 [1] is reported as < 5 µM, the IC50 [2] is reported as < 5 µM and the IC50 [3] is reported as < 5 µM. The IC50 [4] was < 5 µM, the IC50 [5] was < 5 µM and the IC50 [6] was < 5 µM. The IC50 [7] was < 5 µM.

With `N#CCC1CCC2COc3c(Cl)c(-c4ccc(F)c5sc(N)c(C#N)c45)c(F)c4nc(OC[C@@]56CCCN5C[C@H](F)C6)nc(c34)N12` (stereo partly drawn) [compound 107, 2-amino-4-(6-chloro-11-(cyanomethyl)-4-fluoro-2-(((2R,7aS)-2-fluorotetrahydro-1H-pyrrolizin-7a(5H)-yl)methoxy)-8a,9,10,11-tetrahydro-8H-pyrrolo[2′,1′:3,4][1,4]oxazepino[5,6,7-de]quinazolin-5-yl)-7-fluorobenzo[b]thiophene-3-carbonitrile] the IC50 [1] was < 5 µM, the IC50 [2] was < 5 µM and the IC50 [3] was < 5 µM. The IC50 [4] was < 5 µM, the IC50 [5] was < 5 µM and the IC50 [6] was < 5 µM. The IC50 [7] was < 5 µM.

For `N#Cc1c(N)sc2c(F)ccc(-c3c(Cl)c4c5c(nc(OC[C@@]67CCCN6C[C@H](F)C7)nc5c3F)N(CC3CC3)C3COCC3CO4)c12` (stereo partly drawn) [compound 101, 2-amino-4-(6-chloro-12-(cyclopropylmethyl)-4-fluoro-2-(((2R,7aS)-2-fluorotetrahydro-1H-pyrrolizin-7a(5H)-yl)methoxy)-8a,9,11a,12-tetrahydro-8H,11H-furo[3′,4′:6,7][1,5]oxazocino[4,3,2-de]quinazolin-5-yl)-7-fluorobenzo[b]thiophene-3-carbonitrile], the IC50 [1] was < 5 µM, the IC50 [2] was < 5 µM and the IC50 [3] was < 5 µM. The IC50 [4] was < 5 µM, the IC50 [5] was < 5 µM and the IC50 [6] was < 5 µM. The IC50 [7] was < 5 µM.

For `CN1c2nc(OC[C@@]34CCCN3C[C@H](F)C4)nc3c(F)c(-c4ccc(F)c5sc(N)c(C#N)c45)c(Cl)c(c23)OCC2COCC21` (stereo partly drawn) [compound 141, 2-amino-4-(6-chloro-4-fluoro-2-(((2R,7aS)-2-fluorotetrahydro-1H-pyrrolizin-7a(5H)-yl)methoxy)-12-methyl-8a,9,11a,12-tetrahydro-8H,11H-furo[3′,4′:6,7][1,5]oxazocino[4,3,2-de]quinazolin-5-yl)-7-fluorobenzo[b]thiophene-3-carbonitrile], the IC50 [1] was < 5 µM, the IC50 [2] was < 5 µM and the IC50 [3] was < 5 µM. The IC50 [4] was < 5 µM, the IC50 [5] was < 5 µM and the IC50 [6] was < 5 µM. For the same compound, the IC50 [7] was < 5 µM.

Source: US12059425B2, “Heterocyclic compounds and uses thereof” (Kumquat Biosciences Inc., priority 2022, dated 2024)
